# Source: PubChem BioAssay AID1194 (EPA DSSTox, 2008)
# The source made the active and inactive calls.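 Rule for the calls: active = chemicals rated mutagenic or weakly mutagenic in the Salmonella bacterial test by one literature review, or positive overall by another; inconclusive = no clear call, values can overlap the other calls; inactive = the rest.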
# Test system: Salmonella typhimurium Ames mutagenicity, literature compiled
# Test: DSSTox (CPDBAS) Carcinogenic Potency Database Salmonella Mutagenicity
# Method in brief: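 Literature-compiled Salmonella result: chemical called active if rated overall "mutagenic" or "weakly mutagenic" by Zeiger or overall "positive" by the EPA Gene-Tox Program.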
row,SMILES,outcome
1,NNC(N)=O,inactive
2,Clc1ccc(Cl)cc1,inactive
3,S=C(NC1CCCCC1)NC1CCCCC1,inactive; active
4,CCN(N=O)C(N)=O,active; inactive
5,CN(C)/N=N/c1nc[nH]c1C(N)=O,active
6,O=C1CCC(=O)O1,inactive; active
7,c1ccc2c(c1)ccc1cc3c(ccc4ccccc43)cc12,active
8,O=C(O)c1ccccc1-c1c2cc(I)c(=O)c(I)c-2oc2c(I)c(O)c(I)cc12,inactive
9,CN(N=O)C(N)=O,active
10,CNC[C@H](O)c1ccc(O)c(O)c1,inactive; active
11,O=C/C=C/c1ccccc1,inactive
12,CCCN(N=O)C(=N)N[N+](=O)[O-],active; inactive
13,Cc1ccc(Cl)cc1N,inactive; active
14,O=NN1CCSCC1,active; inactive
15,NC(N)=S,inactive; active
16,Oc1ccc(Cl)cc1Cl,inactive; active
17,[Cl-].[Cl-].[Hg+2],inactive; active
18,Nc1ccc(O)c(N)c1,active; inactive
19,Cc1nc(N)cc2[nH]c3ccccc3c12,active
20,Cc1cc(C)c(S(=O)(=O)O)cc1N=Nc1cc(S(=O)(=O)O)c2ccccc2c1O,inactive; active
21,Cc1cc2ncccc2c2nc(N)n(C)c12,active
22,ClC=C(Cl)Cl,inactive; active
23,C=CCOC(=O)CC(C)C,inactive; active
24,C=CBr,active; inactive
25,O=C1CCCO1,inactive; active
26,N/C(=N\O)c1ccc([N+](=O)[O-])o1,active
27,O=C1C(c2[nH]c3ccc(S(=O)(=O)O)cc3c2O)=Nc2ccc(S(=O)(=O)O)cc21,inactive
28,CCCCNC(=O)NS(=O)(=O)c1ccc(C)cc1,inactive; active

row,SMILES,outcome
1,CCCCCCCC(=O)OCC(COC(=O)CCCCCCC)OC(=O)CCCCCCC,active; inactive
2,CCCCC(CC)CO (stereo not given),inactive; active
3,Cc1cc(O)c(C(C)(C)C)cc1Sc1cc(C(C)(C)C)c(O)cc1C,inactive; active
4,CN(C)c1ccc(C(=C2C=CC(=[N+](C)C)C=C2)c2ccc(N(C)C)cc2)cc1,inactive; active
5,c1ccc(NNc2ccccc2)cc1,active
6,ClC1C2(Cl)C3C4C5OC5C5C4C1(Cl)C(Cl)(C53)C2(Cl)Cl (stereo not given),active
7,C=CF,active; inactive
8,NC(=O)/C(=C\c1ccc([N+](=O)[O-])o1)c1ccco1,active
9,COc1cccc2c1C(=O)c1c(O)c3c(c(O)c1C2=O)C[C@@](O)(C(=O)CO)C[C@@H]3O[C@H]1C[C@H](N)[C@H](O)[C@H](C)O1,active
10,O=Cc1ccccc1,inactive; active
11,c1ccc2cc(Nc3ccc(Nc4ccc5ccccc5c4)cc3)ccc2c1,active
12,CN(N=O)C(=O)c1ccccc1,active
13,ClCCOCCCl,active
14,S=c1nc[nH]c2nc[nH]c12,active
15,Oc1ccc(Cl)cc1Cc1ccccc1,inactive; active
16,c1ccccc1,inactive; active
17,CC(=O)Nc1ccc(C(=O)CCl)cc1,active
18,C=CC,active; inactive
19,CCCC(Cl)CCC(Cl)CCC(Cl)CCC(Cl)CCC(Cl)CCC(Cl)CCC(C)Cl (stereo not given),inactive
20,CC(CN1c2ccccc2Sc2ccccc21)N(C)C (stereo not given),inactive
21,CCN(CC)C(=O)c1cccc(C)c1,inactive; active
22,O=S(=O)(O)c1ccc(N=Nc2c(O)ccc3cc(S(=O)(=O)O)ccc23)cc1,inactive; active
23,O=C(O)/C=C/c1ccc(O)c(O)c1,inactive
24,c1ccc(Nc2ccc(Nc3ccccc3)cc2)cc1,active; inactive
25,CCC1(c2ccccc2)C(=O)NC(=O)NC1=O,active
26,c1ccc2occc2c1,inactive; active
27,CC(N)=O,inactive; active
